# Measured values reported in publication PMC9656727, “Biodereplication of Antiplasmodial Extracts: Application of the Amazonian Medicinal Plant Piper coruscans Kunth” (Molecules, 2022).
# Like-named read-outs stand apart in the source and are kept apart here.
# Assays:
# [1] = test system: 3D7 Plasmodium falciparum strain; conditions: artemisinin reference value; read-out: 3D7 Sensitive Strain IC50; cited from earlier work
# [2] = Heme-binding assay by mass spectrometry with collision-induced dissociation of adducts (DV50); conditions: energy dissociating 50% of the heme-Fe(III) adduct, NA = no adduct
# Description: Hemin (iron-containing porphyrin with chlorine counterion) and the crude ethanolic extract were dissolved in DMSO at 5 mM and 10 mg/mL, respectively. Pure compounds were dissolved in DMSO at the concentration of 10 mM, except for Tween 20, which was dissolved in water at 10 µM. Citric-buffer-saturated octanol (CBSO) was prepared by mixing 5 mL of citric acid, 50 mM and pH 5.2, and 15 mL of N-octanol (anhydrous, ≥99%) and letting it settle at 23 °C for 30 min. The upper phase of the CBSO biphasic system was used. Autosampler 1260 infinity G1367E 1260 Hip ALS (Agilent Technologies, Santa Clara, CA, USA) was used to perform the automatic mixing of aliquots in 384-well plates. The incubation mixture was as follows: Compound 5 µL + heme 5 µL + Tween 5 µL + organic phase of CBSO 85 µL. Samples were injected in infusion mode (direct injection) in a 6530 Accurate-Mass QToF LC–MS instrument (Agilent Technologies) with the following settings: Positive ESI mode and 2 GHz acquisition rate. […] In positive-ion mode, purine ion C5H4N4 [M + H]^+ (m/z 121.050873) and the hexakis (1H,1H,3H-tetrafluoropropoxy)-phosphazene ion C18H18F24N3O6P3 [M+H]^+ (m/z 922.009798) were used as internal lock masses. Full scans were acquired at a resolution of ca 11 000 (at m/z 922).
# To obtain heme-Fe(II) from hemin (heme-Fe(III)), glutathione (50 mM in water) was mixed with hemin (5 mM in DMSO) in a ratio of 1:1 and left to incubate for 40 min. This solution was used as the heme solution, as described above.
# Dissociation in the collision chamber was caused by increasing collision energies from 0 to 56 eV. The MS–MS targeted mode, an isolation width of m/z 1.3, and the flow injection analysis mode (FIA) were applied. MS–MS parameters were the same as described above. The results were plotted, and a sigmoidal regression curve allowed us to calculate the energy necessary to dissociate 50% of adducts (DV50) using GraphPrism software version 5.00 (San Diego, CA, USA) or a Python script.
# Ethanolic extract and hemin (heme-Fe(III)) were mixed and injected using infusion mode for the MS–MS experiment. Three collision energies were used: 30, 50, and 70 eV. The ten most intense ions (top 10) per cycle were selected. MS–MS acquisition parameters were as follows: m/z range of 100–1700, default charge of 1, a minimum intensity of 5000 counts, 3 spectra/s, and isolation width of 1.3 m/z. A list of compounds was generated by the “find by auto MSMS” algorithm of MassHunter software (Qualitative Analysis B.07.00, Agilent Technologies). The “extract average MS–MS spectrum” mode was used to summarize and average the results of the 3 collision energies. Exportation of generated spectra was performed in MGF format using the option “entire data file”. The information generated was uploaded onto the online platform GNPS (global natural product social network). Parameters used for the algorithm were as follows: Precursor ion mass tolerance = 1; fragment ion mass tolerance = 0.3; min pairs cos = 0.7; minimum matched fragment ions = 3; and minimum cluster size = 1. From the data, a network was calculated measuring correlations and was plotted using Cytoscape 3.5.1. […] An alkaloid extract from Cinchona pubescens Vahl (Rubiaceae) and eight antiplasmodial drugs (chloroquine, quinine, amodiaquine, ketoconazole, miconazole, mefloquine, praziquantel, and sulfadoxine) were used as examples of the visualization of adduct fragments by MN. The methodology and conditions were the same as described above.
# [3] = test system: AB943 primary human dermal fibroblast cell line; assay: Cytotoxicity, Alamar Blue; assay type: cell-based; conditions: for Selectivity Index CC50/IC50: CC50 on AB943 fibroblasts / IC50 on 3D7
# Description: (§1) Cells were seeded in 96-well plates (20,000 cells/mL) and incubated for 24 h, then treated with the drug for 72 h. […] Fluorescent viable cells were monitored after 5 h of incubation at 37 °C at a wavelength of 530 nm for excitation and 590 nm for emission in an FL600 luminescence spectrometer (Biotek, Colmar, France).
# [4] = Cytotoxicity, Alamar Blue; assay type: cell-based, human; conditions: human, 72 h treatment
# Description: as §1
# [5] = test system: 3D7 Plasmodium falciparum strain; assay: In vitro antiplasmodial activity on Plasmodium falciparum (SYBR Green I); assay type: cell-based; conditions: for IC50: chloroquine-sensitive 3D7 strain, 44 h incubation
# Description: The strain was maintained in O+ human erythrocytes in an albumin-supplemented RPMI medium under continuous culture using the candle-jar method. […] After 44 h of incubation at 37 °C, the plates were subjected to 3 freeze-thaw cycles to achieve complete hemolysis. The parasite lysis suspension was diluted 1:5 in lysis buffer. In vitro susceptibility is expressed as the concentration inhibiting 50% of the parasite's growth (IC50). Parasite growth was determined using SYBR® Green I, a dye with strong fluorescence enhancement upon contact with DNA. Incorporation of the SYBR® Green I (Fisher Scientific, Illkirch-Graffenstaden, France) in parasite DNA was measured using the Master […]® (Eppendorf, Montesson, France) according to the following program to increase the SYBR® Green I incorporation: 90 °C (1 min) and a decrease to 10 °C over 5 min followed by fluorescence reading. Untreated infected and uninfected erythrocytes were used as controls and chloroquine diphosphate (Sigma, Lezennes, France) was used as a reference drug. IC50 was calculated by IC-estimator online software (www.antimalarial-icestimator.net, accessed on 18 January 2018).
# Trypanosoma brucei = test system: Trypanosoma brucei; design: method as in PMID 28000515; conditions: read-out: IC50 against Trypanosoma brucei; cited from earlier work
# [6] = AB943 primary human dermal fibroblast cells
Molecule,DV50 [2],Selectivity Index CC50/IC50 [3],"CC50 at 72 h [4, 6]",IC50 ([5]; Plasmodium falciparum),further results
"C[C@@H]1CC[C@H]2[C@@H](C)C(=O)O[C@@H]3O[C@@]4(C)CC[C@@H]1[C@]32OO4 [ART, Artemisinin]",–,–,–,–,IC50 [1]: 0.004 µM
"CCN(CC)CCCC(C)Nc1ccnc2cc(Cl)ccc12 (stereo not drawn) [CQ, Chloroquine, reference compound]",14.27 eV,–,–,–,DV50 ([2]; listed as chloroquine): above 14 eV
"COc1cc(OC)c(C(=O)/C=C/c2ccccc2)c(O)c1C [Compound 1, aurentiacin]",5.15 eV,30.4,68.5 µM,2.25 µM,–
"COc1cc(O)c(C)c(O)c1C(=O)/C=C/c1ccccc1 [Compound 2, 2′, 4′-dihydroxy-6′-methoxy-3′-methylchalcone]",5.93 eV,1.9,> 100 µM,51 µM,–
"COc1cc(O)cc(O)c1C(=O)/C=C/c1ccccc1 [Compound 3, cardamomin]",5.60 eV,10.5,–,5.5 µM,CC50 at 72 h ([4]; read-out: AB943 Primary Human Fibroblast CC50): 58 µM; IC50 (Trypanosoma brucei): 1.8 µM
"COc1cc2c(c(O)c1C)C(=O)CC(c1ccccc1)O2 (stereo not drawn) [Compound 4, strobopinin 7-methyl ether]",–,–,> 100 µM,60 µM,–
"COc1c(C)c(O)c2c(c1C)OC(c1ccccc1)CC2=O (stereo not drawn) [Compound 5, 5-hydroxy-7-methoxy-6,8-dimethyl flavanone]",–,<1,23 µM,33.2 µM,–
"Cc1c(O)c(C)c2c(c1O)C(=O)CC(c1ccccc1)O2 (stereo not drawn) [Compound 6, desmethoxymatteucinol]",–,1.4,> 100 µM,71 µM,–
"COc1cc(OC)c2c(c1C)OC(c1ccccc1)CC2=O (stereo not drawn) [Compound 9, dimethyl cryptostrobin]",7.68 eV,1.2,> 100 µM,85 µM,–
COC(=O)C1=CC(O)C(O)(C(=O)/C=C/c2ccccc2)C1 (stereo not drawn) [Compound 10],–,1,> 100 µM,> 100 µM,–
"COc1ccc(CCNC(=O)c2ccccc2)cc1 [Compound 11, N-Benzoyltyrarnine methyl ether]",9.45 eV,1,> 100 µM,> 100 µM,antiplasmodial activity (in words) ([5]; 3D7 strain): no antiplasmodial activity
"O=C1C=Cc2ccccc21 [Compound 12, 1H-inden-1-one]",–,1,> 100 µM,> 100 µM,–
alpinetin [Compound 7],8.40 eV,–,–,–,CC50 [3]: > 100 µM; IC50 [5]: 72 µM
pinocembrin [Compound 8],8.68 eV,–,–,–,"CC50 ([3]; 72 h treatment, read-out: AB943 Primary Human Fibroblast CC50): > 100 µM; IC50 [5]: 78 µM"
